Measurements as given in article PMC6035319 (Saudi Pharmaceutical Journal : SPJ, 2018).

Legend:
CYP1A2 = target: T1, CYP1A2 (Homo sapiens, UniProt P05177); assay: HPLC of acetaminophen formed from phenacetin in pooled human liver microsomes; type: biochemical
T1 sequence (P05177 2-516): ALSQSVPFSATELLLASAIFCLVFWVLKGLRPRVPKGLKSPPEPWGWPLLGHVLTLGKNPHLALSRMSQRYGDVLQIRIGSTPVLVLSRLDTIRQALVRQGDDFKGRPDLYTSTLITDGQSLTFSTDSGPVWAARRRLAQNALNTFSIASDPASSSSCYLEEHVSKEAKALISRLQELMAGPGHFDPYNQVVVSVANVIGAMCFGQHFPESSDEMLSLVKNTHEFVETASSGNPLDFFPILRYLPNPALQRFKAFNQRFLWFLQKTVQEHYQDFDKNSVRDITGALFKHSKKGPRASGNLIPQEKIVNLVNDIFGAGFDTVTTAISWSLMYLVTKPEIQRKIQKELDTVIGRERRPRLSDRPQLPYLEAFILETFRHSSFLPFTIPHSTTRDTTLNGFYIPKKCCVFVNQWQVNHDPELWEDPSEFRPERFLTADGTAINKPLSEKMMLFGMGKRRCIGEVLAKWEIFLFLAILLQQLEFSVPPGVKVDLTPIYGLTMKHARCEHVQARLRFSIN

CYP3A4 = CYP3A4 (Homo sapiens, UniProt P08684); type: biochemical
Chain of CYP3A4 (P08684 2-503): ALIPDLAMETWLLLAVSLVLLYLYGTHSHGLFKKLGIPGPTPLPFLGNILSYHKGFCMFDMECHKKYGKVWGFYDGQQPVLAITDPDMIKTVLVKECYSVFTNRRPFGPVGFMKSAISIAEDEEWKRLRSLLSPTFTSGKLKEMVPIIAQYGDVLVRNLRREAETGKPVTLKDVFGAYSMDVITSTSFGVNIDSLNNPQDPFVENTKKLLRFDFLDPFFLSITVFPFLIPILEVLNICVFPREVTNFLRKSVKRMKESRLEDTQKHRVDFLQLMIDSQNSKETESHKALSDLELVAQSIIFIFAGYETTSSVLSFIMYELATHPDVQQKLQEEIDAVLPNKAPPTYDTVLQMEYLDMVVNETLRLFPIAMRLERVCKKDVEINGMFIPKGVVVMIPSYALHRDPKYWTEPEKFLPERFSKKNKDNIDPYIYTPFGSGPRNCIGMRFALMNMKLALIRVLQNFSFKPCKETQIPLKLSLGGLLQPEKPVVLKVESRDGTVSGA

IC50 (CYP1A2): 26.5 ± 2.9 µM
IC50 (CYP3A4): 25.2 ± 3.1 µM
SMILES: CC1=CC(=O)C(C(C)C)=CC1=O [thymoquinone]
